According to ChEMBL document CHEMBL1933061, “Discovery of a novel class of aldol-derived 1,2,3-triazoles: potent and selective inhibitors of human cytochrome P450 19A1 (aromatase)” (Bioorg Med Chem Lett, 2012):

Tests used:
Aromatase [1] = biological target: T1, Aromatase (Homo sapiens, UniProt P11511); assay: Inhibition of human recombinant aromatase assessed as conversion of O-dibenzylfluorescein benzyl ester substrate to fluorescein byproduct by fluorometric assay; details: for inhibition (INH): human
T1 sequence (P11511 whole entry): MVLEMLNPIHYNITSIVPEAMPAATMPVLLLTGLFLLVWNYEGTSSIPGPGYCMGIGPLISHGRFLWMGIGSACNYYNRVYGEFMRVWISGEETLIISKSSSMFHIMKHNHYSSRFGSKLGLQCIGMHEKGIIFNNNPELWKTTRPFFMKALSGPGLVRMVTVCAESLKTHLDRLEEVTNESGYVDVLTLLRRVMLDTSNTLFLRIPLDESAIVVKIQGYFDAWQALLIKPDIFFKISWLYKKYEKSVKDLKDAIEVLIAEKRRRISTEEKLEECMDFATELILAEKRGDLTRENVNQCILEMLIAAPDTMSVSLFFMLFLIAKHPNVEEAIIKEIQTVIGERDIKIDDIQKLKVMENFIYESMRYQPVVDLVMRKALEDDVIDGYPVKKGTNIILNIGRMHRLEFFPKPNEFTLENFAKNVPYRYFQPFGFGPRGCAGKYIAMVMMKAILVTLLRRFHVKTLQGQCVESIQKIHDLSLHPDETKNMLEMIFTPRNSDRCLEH

Aromatase [2] = biological target: T1, Aromatase; assay: Inhibition of human recombinant aromatase assessed as conversion of O-dibenzylfluorescein benzyl ester substrate to fluorescein byproduct at 10 uM by fluorometric assay
Cytochrome P450 3A4 = Cytochrome P450 3A4 (Homo sapiens, UniProt P08684); assay: Inhibition of CYP3A4 at 10 uM; assay type: ADME
Chain of Cytochrome P450 3A4 (P08684 whole entry): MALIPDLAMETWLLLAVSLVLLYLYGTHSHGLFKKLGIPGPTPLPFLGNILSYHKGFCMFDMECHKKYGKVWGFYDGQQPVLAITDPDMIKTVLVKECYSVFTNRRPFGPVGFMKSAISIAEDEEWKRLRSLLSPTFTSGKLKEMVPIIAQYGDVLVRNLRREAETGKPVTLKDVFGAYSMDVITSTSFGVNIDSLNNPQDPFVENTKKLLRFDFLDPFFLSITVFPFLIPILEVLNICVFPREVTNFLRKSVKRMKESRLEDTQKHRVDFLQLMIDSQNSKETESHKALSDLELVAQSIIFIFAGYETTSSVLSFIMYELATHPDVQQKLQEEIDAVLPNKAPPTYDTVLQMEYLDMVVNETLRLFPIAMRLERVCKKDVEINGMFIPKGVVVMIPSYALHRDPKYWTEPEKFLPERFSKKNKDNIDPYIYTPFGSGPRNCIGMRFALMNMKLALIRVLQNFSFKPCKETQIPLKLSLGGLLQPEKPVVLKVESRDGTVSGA

Cytochrome P450 2D6 = Cytochrome P450 2D6 (Homo sapiens, UniProt P10635); assay: Inhibition of CYP2D6; assay type: ADME
Chain of Cytochrome P450 2D6 (P10635 whole entry): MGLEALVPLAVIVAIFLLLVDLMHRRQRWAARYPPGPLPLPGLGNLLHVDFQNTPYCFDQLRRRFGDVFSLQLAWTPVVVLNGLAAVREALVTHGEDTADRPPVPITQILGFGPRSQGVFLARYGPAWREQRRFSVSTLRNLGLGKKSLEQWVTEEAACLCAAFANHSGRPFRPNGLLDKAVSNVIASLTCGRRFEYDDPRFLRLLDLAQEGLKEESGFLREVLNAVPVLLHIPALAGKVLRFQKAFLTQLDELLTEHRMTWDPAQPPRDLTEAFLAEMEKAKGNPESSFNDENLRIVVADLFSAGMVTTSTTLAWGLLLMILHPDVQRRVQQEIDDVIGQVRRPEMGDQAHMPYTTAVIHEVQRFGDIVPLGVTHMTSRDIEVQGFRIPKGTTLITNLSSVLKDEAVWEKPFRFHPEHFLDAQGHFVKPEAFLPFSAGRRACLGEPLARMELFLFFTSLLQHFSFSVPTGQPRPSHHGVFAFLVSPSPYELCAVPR

Cytochrome P450 1A1 = biological target: T2, Cytochrome P450 1A1 (Homo sapiens, UniProt P04798); assay: Inhibition of CYP1A1; assay type: ADME
T2 sequence (P04798 whole entry): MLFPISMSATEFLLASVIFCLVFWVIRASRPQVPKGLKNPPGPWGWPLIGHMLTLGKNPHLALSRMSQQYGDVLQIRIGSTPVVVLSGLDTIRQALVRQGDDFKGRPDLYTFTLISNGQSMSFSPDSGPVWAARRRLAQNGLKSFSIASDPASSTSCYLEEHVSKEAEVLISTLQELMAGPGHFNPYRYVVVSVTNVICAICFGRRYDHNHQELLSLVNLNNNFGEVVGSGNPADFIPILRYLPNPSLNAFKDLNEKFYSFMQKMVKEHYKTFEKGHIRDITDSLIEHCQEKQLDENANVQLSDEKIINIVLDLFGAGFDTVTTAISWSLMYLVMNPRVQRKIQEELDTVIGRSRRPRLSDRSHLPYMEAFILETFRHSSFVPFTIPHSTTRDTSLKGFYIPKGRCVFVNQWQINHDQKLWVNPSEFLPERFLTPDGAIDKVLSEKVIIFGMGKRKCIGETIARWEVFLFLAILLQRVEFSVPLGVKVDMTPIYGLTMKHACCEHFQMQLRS

## COCO[C@@H](c1ccccc1)[C@@H](Cn1cc([Si](C)(C)C)nn1)c1ccccc1 (relative stereo)
Aromatase [1]
  inhibition (INH): Not Active
Aromatase [2]
  inhibition (INH): Not Active

## COCO[C@H](c1ccccc1)[C@@H](CN=[N+]=[N-])c1ccccc1 (relative stereo)
Aromatase [2]
  inhibition (INH): Not Active

## O[C@H](c1ccccc1)[C@@H](Cn1ccnn1)c1ccccc1 (relative stereo)
Aromatase [1]
  Ki: 0.05 µM
Cytochrome P450 3A4
  inhibition (INH): Not Active
Cytochrome P450 2D6
  Ki: 708 µM

## O[C@@H](c1ccccc1)[C@@H](Cn1ccnn1)c1ccccc1 (relative stereo)
Aromatase [2]
  inhibition (INH): Not Active

## COCO[C@H](c1ccccc1)[C@@H](Cn1cc([Si](C)(C)C)nn1)c1ccccc1 (relative stereo)
Aromatase [2]
  inhibition (INH): Not Active

## O=C(O[C@@H](c1ccccc1)[C@@H](Cn1ccnn1)c1ccccc1)c1ccccc1 (relative stereo)
Aromatase [1]
  Ki: 0.1 µM
Cytochrome P450 3A4
  inhibition (INH): Not Active
Cytochrome P450 1A1
  Ki: 30.9 µM

## O=C(c1ccccc1)C(Cn1ccnn1)c1ccccc1 (stereo unspecified)
Aromatase [1]
  Ki: 1 µM
Cytochrome P450 3A4
  inhibition (INH): Not Active
Cytochrome P450 1A1
  Ki: 5.37 µM

## CC(=O)O[C@H](c1ccccc1)[C@@H](Cn1ccnn1)c1ccccc1 (relative stereo)
Aromatase [1]
  Ki: 0.25 µM
Cytochrome P450 3A4
  inhibition (INH): Not Active

## CC(=O)O[C@@H](c1ccccc1)[C@@H](Cn1ccnn1)c1ccccc1 (relative stereo)
Aromatase [1]
  Ki: 0.06 µM
Cytochrome P450 3A4
  inhibition (INH): Not Active

## COCO[C@@H](c1ccccc1)[C@@H](CN1CCOCC1)c1ccccc1 (relative stereo)
Aromatase [2]
  inhibition (INH): Not Active

## COCO[C@H](c1ccccc1)[C@@H](Cn1ccnn1)c1ccccc1 (relative stereo)
Aromatase [1]
  Ki: 0.08 µM
Cytochrome P450 3A4
  inhibition (INH): Not Active

## COCO[C@@H](c1ccccc1)[C@@H](CN=[N+]=[N-])c1ccccc1 (relative stereo)
Aromatase [1]
  inhibition (INH): Not Active
Aromatase [2]
  inhibition (INH): Not Active

## COCO[C@@H](c1ccccc1)[C@@H](Cn1ccnn1)c1ccccc1 (relative stereo)
Aromatase [1]
  Ki: 0.79 µM
Cytochrome P450 2D6
  Ki: 1120 µM

## COCO[C@@H](c1ccccc1)[C@@H](CN)c1ccccc1 (relative stereo)
Aromatase [2]
  inhibition (INH): Not Active
